From patent US20230263822A1, “MODULATION OF FACTOR 11 EXPRESSION” (Ionis Pharmaceuticals, Inc., priority 2008, published 2023)
Read-outs that look alike come from different tables or passages of the source. e = 2'-O-(2-methoxyethyl) (MOE); d = 2'-deoxy (DNA)

Legend:
[1] = Collagenase-induced intracerebral hemorrhage model: hemorrhage volume, neurologic deficit score, mortality (Example 25); type: in vivo, BALB/c mice; details: ISIS oligonucleotides 40 mg/kg s.c., warfarin 2 mg/kg intraperitoneally, twice a week for two weeks
Method: In a first cohort, ISIS 404071 was administered subcutaneously to BALB/c mice twice a week for two weeks at a dose 40 mg/kg. […] In a third cohort, ISIS 421208 ([…], 8 mismatches to murine Factor 11, incorporated herein as SEQ ID NO: 14) was administered subcutaneously to BALB/c mice twice a week for two weeks at a dose 40 mg/kg. In a fourth cohort, PBS was administered to BALB/c mice twice a week for two weeks.
Two days after receiving their final dose, all mice in all cohorts were anesthetized with […] of avertin. Next, the mice were injected at −1 mm AP, 1 mm R ML, −4 mm DV from bregma flat skull with a 10 μL Hamilton syringe containing 0.075 U collagenase (150 U/mL). Collagenase was delivered over 5 minutes and the needle was kept in place for an additional 5 minutes to prevent reflux. The mice were then analyzed for hemorrhagic size, neurologic deficit score, and mortality.
Table 37 presents the hemorrhage volume detected in mice after collagenase treatment, Table 38 presents the neurologic deficit score of the mice, and Table 39 presents the mortality rate of the mice. Neurological deficit is measured by a standard scoring system where no deficiency is zero and severe deficit is five.

[2] = Tail bleeding assay vs warfarin (Example 12)
Method: A separate control group of BALB/c mice was treated with PBS, administered subcutaneously twice a week for 3 weeks.
Mice were anesthetized in the chamber with isoflurane and a small piece of tail (approximately 4 mm from the tip) was cut with sterile scissors. The tail cut was immediately placed in a 15 mL Falcon tube filled with approximately 10 mL of 0.9% NaCl buffer solution warmed to 37° C. The blood was collected over the course of 40 minutes. The saline filled tubes were weighed both before and after bleeding.

blood coagulation [3] = experiment: PT and aPTT, combination with warfarin (Example 21); type: in vivo, BALB/c mice
Method: Plasma was collected from each group 5 days after the last dose was administered. […] In a final group of BALB/c mice, PBS was administered subcutaneously twice a week for three weeks, as a control. Plasma was collected 5 days after the last PBS treatment.
PT and aPTT values provided in Table 33 are reported as International Normalized Ratio (INR) values.

platelet factor-4 (PF-4) = experiment: Thrombus formation by PF-4 real-time PCR, FeCl3 induced venous thrombosis model vs warfarin (Example 11); type: in vivo, BALB/c mice; details: for PF-4 in vena cava, percentage as compared to PBS controls (thrombus formation): + FeCl3
Method: (§1) Two control groups of BALB/c mice were treated with PBS, administered subcutaneously twice a week for 3 weeks. Two days after the last dose of PBS, mice in both groups were anesthetized with 150 mg/kg ketamine mixed with 10 mg/kg xylazine administered by intraperitoneal injection. Thrombus formation was induced with FeCl3 in all groups of mice except the first control group.
(§2) In mice undergoing FeCl3 treatment, thrombus formation was induced by applying a piece of filter paper (2×4 mm) pre-saturated with 10% FeCl3 solution directly on the vena cava. After 3 minutes of exposure, the filter paper was removed. Thirty minutes after the filter paper application, a fixed length of the vein containing the thrombus was dissected out for platelet analysis. Liver was collected for RNA analysis.
Real-time PCR quantification of platelet factor-4 (PF-4) was used to quantify platelets in the vena cava as a measure of thrombus formation.

Factor 11 mRNA = Factor 11 mRNA in liver, FeCl3 induced venous thrombosis model vs warfarin (Example 11); type: in vivo, BALB/c mice; details: FeCl3 induced VT model; ISIS 404071 1.25-40 mg/kg s.c. twice a week 3 weeks; warfarin 0.5-5 mg/kg daily 6 days
Method: as §1, §2
RNA was extracted from liver tissue for real-time PCR analysis of Factor 11.

blood coagulation [4] = experiment: PT and aPTT vs warfarin (Example 13); type: in vivo, BALB/c mice; details: for aPTT INR / PT INR: PPP two days after final dose
Method: In a control group, BALB/c mice were treated with PBS, administered subcutaneously mice twice a week for 3 weeks.
Two days after the final dose was administered, PPP was collected and PT and aPTT assays were performed.
PT and aPTT values provided in Table 16 are reported as International Normalized Ratio (INR) values. […] This ratio was then raised to the power of the International Sensitivity Index (ISI) of the tissue factor used.

[5] = rat, in vivo, sc, 50 mg/kg
[6] = rat, in vivo, sc, 50 mg/kg; remark: listed apart in the source
[7] = mouse, in vivo, sc, 50 mg/kg
[8] = mouse, in vivo, sc, 50 mg/kg; remark: listed apart in the source
[9] = rat, in vivo, sc, 50 mg/kg; remark: listed apart in the source
[10] = mouse, in vivo, sc, 50 mg/kg; remark: listed apart in the source
[11] = Warfarin 0.5 mg/kg intraperitoneally daily for 6 days
[12] = Warfarin 1 mg/kg intraperitoneally daily for 6 days
[13] = Warfarin 2 mg/kg intraperitoneally daily for 6 days
[14] = Warfarin 3 mg/kg intraperitoneally daily for 6 days
[15] = Warfarin 4 mg/kg intraperitoneally daily for 6 days
[16] = Warfarin 5 mg/kg intraperitoneally daily for 6 days
[17] = BALB/c mice, ISIS 404071 25 or 50 mg/kg, warfarin 2 mg/kg
[18] = Warfarin 2 mg/kg once daily for 5 days
[19] = BALB/c mice, ISIS 404071 1.25-40 mg/kg, warfarin 0.5-5 mg/kg

CC(=O)CC(c1ccccc1)c1c(O)c2ccccc2oc1=O (centres unmarked) [warfarin]
% mortality after collagenase treatment [1]: 80%
bleeding in tail bleeding assay ([2]; BALB/c mice, compared to PBS treated mice): did increase bleeding
Blood (tail bleeding, collected over 40 minutes) [2, 11]: 0.07 g
Blood (tail bleeding, collected over 40 minutes) [2, 12]: 0.35 g
Blood (tail bleeding, collected over 40 minutes) [2, 13]: 0.39 g
Blood (tail bleeding, collected over 40 minutes) [2, 14]: 0.51 g
Blood (tail bleeding, collected over 40 minutes) [2, 15]: 0.52 g
Blood (tail bleeding, collected over 40 minutes) [2, 16]: 0.76 g
PT (blood coagulation [3]; [17]): increase PT
aPTT (blood coagulation [3]; [17]): affected
PT INR (blood coagulation [3]; [18]): 21.33 INR
aPTT INR (blood coagulation [3]; [18]): 2.52 INR
PF-4 in vena cava as measure of thrombus formation (platelet factor-4 (PF-4); FeCl3 induced VT model, vs PBS control): reduction of PF-4 in comparison to the PBS control for dosages of 2 mg/kg and higher
PF-4 in vena cava, percentage as compared to PBS controls (thrombus formation) (platelet factor-4 (PF-4); [11]): 128%
PF-4 in vena cava, percentage as compared to PBS controls (thrombus formation) (platelet factor-4 (PF-4); [12]): 124%
PF-4 in vena cava, percentage as compared to PBS controls (thrombus formation) (platelet factor-4 (PF-4); [13]): 80%
PF-4 in vena cava, percentage as compared to PBS controls (thrombus formation) (platelet factor-4 (PF-4); [14]): 21%
PF-4 in vena cava, percentage as compared to PBS controls (thrombus formation) (platelet factor-4 (PF-4); [15]): 12%
PF-4 in vena cava, percentage as compared to PBS controls (thrombus formation) (platelet factor-4 (PF-4); [16]): 33%
Factor 11 mRNA in liver vs PBS control (Factor 11 mRNA): did not result in significant reduction of Factor 11
PT (blood coagulation [4]; [19]): significantly prolonged at every dosage
aPTT (blood coagulation [4]; [19]): prolonged, particularly at dosages of 1 mg/kg and higher
aPTT INR (blood coagulation [4]; [11]): 1.10 INR
PT INR (blood coagulation [4]; [12]): 2.03 INR
aPTT INR (blood coagulation [4]; [12]): 1.31 INR
PT INR (blood coagulation [4]; [13]): 2.77 INR
aPTT INR (blood coagulation [4]; [13]): 1.54 INR
PT INR (blood coagulation [4]; [14]): 22.76 INR
aPTT INR (blood coagulation [4]; [14]): 2.90 INR
PT INR (blood coagulation [4]; [15]): 6.74 INR
aPTT INR (blood coagulation [4]; [15]): 2.18 INR
PT INR (blood coagulation [4]; [16]): 9.20 INR
aPTT INR (blood coagulation [4]; [16]): 2.29 INR

ISIS 445509: 5-8-5 or 6-8-6 MOE microwalk gapmer (Table 44) (antisense CGGACGGCATTGGTGCACAG; sugars from the 5' end e6 d8 e6, backbone and methylation of C not given here)
HCT [5]: 47%
Lymphocyte [5]: 84%
Neutrophil [5]: 11%
Platelets [5]: 1115 nL⁻¹
RBC [5]: 8.4 pL⁻¹
WBC [5]: 17 nL⁻¹
hemoglobin [5]: 14.1 g/dL
monocytes [5]: 3.8%
BUN [6]: 27 mg/dL
Creatinine [6]: 0.5 mg/dL
Urine protein/creatinine ratio [6]: 4.0
HCT [7]: 51%
Lymphocyte [7]: 3758
Neutrophil [7]: 1104
Platelets [7]: 1085
RBC [7]: 10.2
WBC [7]: 5
hemoglobin [7]: 15.3 g/dL
BUN [8]: 29 mg/dL
ALT [9]: 676 IU/L
AST [9]: 291 IU/L
Albumin [9]: 3.5
Bilirubin [9]: 0.14 mg/dL
ALT [10]: 80 IU/L
AST [10]: 117 IU/L
Albumin [10]: 3.1
Bilirubin [10]: 0.17 mg/dL

ISIS 445513: 5-8-5 or 6-8-6 MOE microwalk gapmer (Table 44) (antisense GCAGCGGACGGCATTGGTGC; sugars from the 5' end e6 d8 e6, backbone and methylation of C not given here)
HCT [5]: 44%
Lymphocyte [5]: 82%
Neutrophil [5]: 14%
Platelets [5]: 1051 nL⁻¹
RBC [5]: 7.8 pL⁻¹
WBC [5]: 17 nL⁻¹
hemoglobin [5]: 13.0 g/dL
monocytes [5]: 3.5%
BUN [6]: 24 mg/dL
Creatinine [6]: 0.4 mg/dL
Urine protein/creatinine ratio [6]: 4.6
Lymphocyte [7]: 5523
Neutrophil [7]: 959
Platelets [7]: 942
BUN [8]: 27 mg/dL
ALT [9]: 214 IU/L
AST [9]: 91 IU/L
Albumin [9]: 3.5
Bilirubin [9]: 0.15 mg/dL
ALT [10]: 37 IU/L
AST [10]: 84 IU/L
Albumin [10]: 3.1
Bilirubin [10]: 0.22 mg/dL

ISIS 445530: 5-8-5 or 6-8-6 MOE microwalk gapmer (Table 44) (antisense GCATTGGTGCACAGTTTC; sugars from the 5' end e5 d8 e5, backbone and methylation of C not given here)
HCT [5]: 50%
Lymphocyte [5]: 87%
Neutrophil [5]: 11%
Platelets [5]: 1249 nL⁻¹
RBC [5]: 8.9 pL⁻¹
WBC [5]: 12 nL⁻¹
hemoglobin [5]: 14.7 g/dL
monocytes [5]: 2.0%
BUN [6]: 22 mg/dL
Creatinine [6]: 0.4 mg/dL
Urine protein/creatinine ratio [6]: 4.2
HCT [7]: 50%
Lymphocyte [7]: 5488
Neutrophil [7]: 930
Platelets [7]: 849
RBC [7]: 10.0
WBC [7]: 7
hemoglobin [7]: 15.1 g/dL
BUN [8]: 26 mg/dL
ALT [9]: 116 IU/L
AST [9]: 56 IU/L
Albumin [9]: 3.7
Bilirubin [9]: 0.11 mg/dL
ALT [10]: 104 IU/L
AST [10]: 136 IU/L
Albumin [10]: 3.2
Bilirubin [10]: 0.18 mg/dL
